Among the data in ChEMBL document CHEMBL1127777, “Indolocarbazole nitrogens linked by three-atom bridges: a potent new class of PKC inhibitors” (Bioorg Med Chem Lett, 1994) are IC50 values, retold here.

What is called IC50 is the concentration that inhibits the measured activity by half. A low value points to greater potency in that assay.

The target in the experiment is Protein kinase C (PKC). Kind of experiment: In vitro inhibition of protein kinase C from rat brain.
Regarding `O=C1NC(=O)c2c1c1c3ccccc3n3c1c1c2c2ccccc2n1CN(CCO)C3`, the IC50 turned out to be 17 nM.

Take `O=C1NCc2c1c1c3ccccc3n3c1c1c2c2ccccc2n1CN(CCO)C3`: the IC50 was 15 nM.

`O=C1NCc2c1c1c3ccccc3n3c1c1c2c2ccccc2n1CSC3`: the IC50 turned out to be 7 nM.

With `O=C1NC(=O)c2c1c1c3ccccc3n3c1c1c2c2ccccc2n1CNC3`, the IC50 amounted to 145 nM.

In turn, `O=C1NC(=O)c2c1c1c3ccccc3n3c1c1c2c2ccccc2n1CN(O)C3` gave an IC50 of 90 nM.

`O=C1NC(=O)c2c1c1c3ccccc3n3c1c1c2c2ccccc2n1C[S+]([O-])C3` showed an IC50 of 19 nM.

With `O=C1NCc2c1c1c3ccccc3n3c1c1c2c2ccccc2n1CS(=O)(=O)C3`, the IC50 is on record as 5 nM.

As to `CN1Cn2c3ccccc3c3c4c(c5c6ccccc6n(c5c32)C1)C(=O)NC4=O`, the IC50 is 86 nM.

`CCOC(=O)C1n2c3ccccc3c3c4c(c5c6ccccc6n(c5c32)CS1(=O)=O)C(=O)NC4=O` (stereo not drawn) showed an IC50 of 20 nM.

Compound `NC1=NC(=O)c2c1c1c3ccccc3n3c1c1c2c2ccccc2n1CSC3` returned an IC50 of 24 nM.

Consider `O=C1NC(=O)c2c1c1c3ccccc3n3c1c1c2c2ccccc2n1CS(=O)(=O)C3`, for which the IC50 stood at 2 nM.

Regarding `O=C1NC(=O)c2c1c1c3ccccc3n3c1c1c2c2ccccc2n1C1COCC3S1(=O)=O`, the IC50 is given as 20 nM.

In turn, `O=C1NC(=O)c2c1c1c3ccccc3n3c1c1c2c2ccccc2n1CSC3` displayed an IC50 of 14 nM.

Turning to `NC1=NC(=O)c2c1c1c3ccccc3n3c1c1c2c2ccccc2n1COC3`, the IC50 stood at 24 nM.

`O=C1NC(=O)c2c1c1c3ccccc3n3c1c1c2c2ccccc2n1COC3` gave an IC50 of 11 nM.

Compound `O=C1NC(=O)c2c1c1c3ccccc3n3c1c1c2c2ccccc2n1CN(C(CO)CO)C3` had an IC50 of 10 nM.

Consider `CC1n2c3ccccc3c3c4c(c5c6ccccc6n(c5c32)C(C)S1(=O)=O)C(=O)NC4=O` (stereo in doubt), for which the IC50 came to 2.4 nM.

`CC1n2c3ccccc3c3c4c(c5c6ccccc6n(c5c32)C(C)S1(=O)=O)C(=O)NC4=O` (stereo in doubt; 16 (dl)) gave an IC50 of 120 nM.
